What all share (test): NCI tumour cell line growth inhibition, 48 h
Test [1] has as its system 786-0 renal.
Test [2] has as its system HCT-15 colon.
Test [3] has as its system HOP-62 NSCLC.
Test [4] deals with HOP-92 NSCLC.
The test system of test [5] is M14 melanoma.
In test [6] the test system is MOLT-4 leukemia.
The test system of test [7] is OVCAR-4 ovarian.
The subject of test [8] is RPMI-8226 leukemia.
Test [9] deals with SK-MEL-2 melanoma.
Test [10] relates to SK-MEL-5 melanoma.
The test system of test [11] is SK-OV-3 ovarian.
Test [12] deals with SN12C renal.
The test system of test [13] is SNB-19 CNS.
The subject of test [14] is UACC-257 melanoma.
For test [15], the system named is UACC-62 melanoma.
The subject of test [16] is UO-31 renal.
In test [17] the test system is T-47D breast.
The test system of test [18] is MDA-MB-231 breast.

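How tested: cells in 96-well plates exposed to compound for 48 hours at five concentrations. TGI marks complete inhibition of growth.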 Where only a bound is given, the exact number is not on record here.

As for `COc1cc2c(c(OC)c1OC)[C@@H]1CCCCC[C@@H]1CCC2=O`, the TGI in [1] is > 100 µM; in test [2], > 100 µM; in test [3], > 100 µM; in [4] it was > 100 µM; in [5], > 100 µM; in test [6] it was > 64.7 µM. Further, the TGI in [7] was > 100 µM; in test [8] it was > 64.1 µM; in [9], > 100 µM; in test [10], > 100 µM; in test [11] it was > 100 µM; in [12], > 100 µM. Moreover, the TGI in test [13], in [14], in test [15] and in test [16] was > 100 µM in each case.

In the case of `CCCCCCCCC#CCCCCCCC(F)C(=O)O` (configuration not stated), the TGI in test [1], in [2], in test [3], in [4], in test [5] and in test [6] was > 100 µM each time. The TGI in [7], in test [8], in test [9], in test [10], in test [11] and in test [13] was > 100 µM throughout. Besides, the TGI in test [17], in [14] and in test [16] was > 100 µM throughout.

Turning to `CCN1C(c2ccccc2)=CC(c2ccccc2)(C(Cl)(Cl)Cl)C=C1c1ccccc1`, the TGI in test [1] was > 100 µM; in [2], > 100 µM; in test [3] it was > 100 µM; in [4], 25.8 µM; in test [5], 26.4 µM; in test [18] it was > 100 µM. Moreover, the TGI in [6] is 61.8 µM; in test [7], > 100 µM; in test [8], > 100 µM; in test [10], 4.46 µM; in test [12] it was > 100 µM; in test [13], > 100 µM. Further, the figures for the TGI in test [17], in test [14] and in test [16] were 2.29 µM, > 100 µM and > 100 µM, respectively.

With `COc1c(O)ccc(/C=N/NC(=S)NCOCCOC(C)=O)c1OC`, the TGI in [1], in test [2], in test [3], in [4], in test [5] and in test [7] was > 100 µM throughout. The TGI in test [9], in [10], in [11], in [12], in test [13] and in [14] was > 100 µM throughout. Further, the TGI in test [15] and in test [16] was > 100 µM each time.

Turning to `CC[n+]1c(/C=C/c2cc(C(=O)OC)n3c2sc2ccccc23)sc2ccccc21`, the TGI in test [1] was 38.6 µM; in test [2], 34.9 µM; in [3], 34.8 µM; in test [4], 31.6 µM; in [5] it was 34.9 µM; in test [6], 33.9 µM. In addition, the TGI in test [7] was 34.2 µM; in [9], 39 µM; in test [10], 28.9 µM; in test [11], 34 µM; in test [12] it was 49.3 µM; in test [13] it was 44 µM. For the same compound, the TGI turned out to be 33.1 µM in test [14], 30.9 µM in test [15] and 35.1 µM in test [16].

Turning to `COc1cc(Br)c(/C=N/N=C(\N)NO)cc1OC`, the TGI in test [1] is 92.8 µM; in test [2], > 100 µM; in test [3] it was 70.3 µM; in test [4], 90.5 µM; in test [5] it was 34.7 µM; in test [6], > 100 µM. Further, the TGI in test [7] was > 100 µM; in test [8], > 100 µM; in [9], > 100 µM; in test [10], 21.2 µM; in test [11], 68.8 µM; in test [12], 83.2 µM. Also, the TGI in [13] is > 100 µM; in test [14], 51 µM; in test [15], 32.3 µM; in test [16], > 100 µM.

For `COc1cccc(C2c3cc4c(cc3OC(N3CCCC3)C2c2ccccc2)OCO4)c1O` (configuration not stated), the TGI in [1] is 27.8 µM; in test [2], 37.3 µM; in test [3], 47.6 µM; in test [5] it was 25.4 µM; in test [6], 21.5 µM; in test [8], 31 µM. Moreover, the TGI in test [9] is 27.9 µM; in [10], 22.6 µM; in [12], 31 µM; in test [13], 27.7 µM; in [17], > 100 µM; in test [14] it was 24.4 µM. Besides, the TGI was determined as 47.2 µM in test [15] and 20.1 µM in test [16].

Take `Cc1cc(O)c(C(O)c2ccccn2)cc1O` (configuration not stated): the TGI in test [1] was 34.5 µM; in [2], 34.1 µM; in [3], > 100 µM; in test [5], 38.4 µM; in test [18], 33.3 µM; in [6] it was > 100 µM. The TGI in test [8] is 67.4 µM; in [10], 38.4 µM; in [12], 43.7 µM; in test [13] it was > 100 µM; in test [15], 28.7 µM; in test [16] it was 33.5 µM.

For `Cc1nsc2cc(Cl)n(C)c(=O)c12`, the TGI in [1], in [2], in [3], in [4], in test [5] and in test [6] was > 100 µM in each case. In addition, the TGI in [7], in [8], in test [9], in test [10], in test [11] and in [12] was > 100 µM each time. The TGI in test [13], in [14] and in test [16] was > 100 µM each time.

Turning to `CN(C)Cc1cc(C(=O)/C=C/c2ccc(Cl)cc2Cl)cc(CN(C)C)c1O`, the TGI stood at 13.5 µM in test [1]; 14.6 µM in test [2]; 12.9 µM in test [3]; 8.55 µM in [4]; 13.3 µM in test [5]; 6.53 µM in [18]. The TGI was 4.71 µM in test [6]; 13.1 µM in [7]; > 100 µM in [8]; 5.66 µM in test [10]; 6.96 µM in [12]; 19.9 µM in [13]. Moreover, the TGI was found to be 22.1 µM in test [17], 17.6 µM in test [14] and 6.01 µM in test [16].

Consider `O=C1NCC2(CCN(CC3COc4ccccc4O3)CC2)N1c1ccccc1` (configuration not stated), for which the TGI in [1], in [2], in test [3], in test [5], in test [18] and in test [6] was > 100 µM throughout. Besides, the TGI in test [7], in test [8], in test [9], in [10], in [11] and in [12] was > 100 µM each time. Further, the TGI in [13], in test [17], in test [14], in test [15] and in test [16] was > 100 µM each time.

Regarding `C=Cc1c(-c2ccccc2)cnc2[nH]c3ccccc3c12`, the TGI in test [1], in [2], in test [3], in [5], in test [6] and in [7] was > 50 µM in each case. The TGI in test [8], in [9], in test [10], in [11], in test [12] and in test [13] was > 50 µM each time. The TGI in [14], in [15] and in test [16] was > 50 µM throughout.

Regarding `COc1cc(C(C)c2cc3c(cc2OCCCCCOc2cc4c(cc2C(C)c2cc(OC)c(OC)c(OC)c2)OCO4)OCO3)cc(OC)c1OC` (configuration not stated), the TGI in test [1], in test [2], in [3], in test [5], in test [6] and in test [7] was > 100 µM throughout. Besides, the TGI in test [8], in test [9], in [10], in [12], in test [13] and in test [14] was > 100 µM throughout. The TGI in [15] and in test [16] was > 100 µM each time.

Turning to `CCOC(=O)/C(=C\n1c(=O)sc2ccccc21)C(=O)c1ccccc1`, the TGI in test [1], in test [2], in test [3], in [5], in test [18] and in [6] was > 100 µM each time. Besides, the TGI in test [7], in test [8], in [9], in test [10], in test [11] and in [12] was > 100 µM throughout. Besides, the TGI in test [17], in [14], in test [15] and in test [16] was > 100 µM in each case.

For the compound `Nc1ccc(C(=O)NN2C(=O)C(Cl)C2c2ccc(O)cc2)cc1` (configuration not stated), the TGI in [1] is 31.3 µM; in [2], 50.1 µM; in [3], 38.4 µM; in [4], 41.8 µM; in [5] it was 31.4 µM; in test [6], 37.8 µM. Moreover, the TGI in [7] was 41.4 µM; in test [8] it was > 100 µM; in [9], 31.4 µM; in [10] it was 31 µM; in test [11] it was 46.1 µM; in test [12], 36.6 µM. Further, the TGI in test [13] is 31.4 µM; in test [14] it was > 100 µM; in test [15], 29.1 µM; in test [16], 57.9 µM.

As to `O=C(O)C(Cc1ccc(O)cc1)N=Cc1nc(-c2ccccc2)oc1O` (configuration not stated), the TGI in [1], in test [2], in test [3], in [4], in [5] and in test [7] was > 100 µM each time. In addition, the TGI in test [8], in [9], in test [10], in test [11], in test [13] and in [14] was > 100 µM throughout. Further, the TGI in [16] was > 100 µM.

For `CC(=O)NC1=C(NCCO)C(=O)c2ccccc2C1=O`, the TGI in test [1], in test [2], in [3], in [5], in [6] and in [7] was > 50 µM throughout. Besides, the TGI in test [9], in test [10], in test [11], in [12], in test [13] and in test [14] was > 50 µM in each case. For the same compound, the TGI in [15] and in test [16] was > 50 µM each time.

Turning to `O=C(CC(=O)n1nc(-c2ccccc2)c(N=Nc2ccc([N+](=O)[O-])cc2)c1-c1ccccc1)Nc1ccc(Cl)cc1`, the TGI is > 100 µM in test [1]; 42.7 µM in test [3]; 52.3 µM in test [4]; > 100 µM in test [5]; > 100 µM in [6]; > 100 µM in [7]. Moreover, the TGI was > 100 µM in [8]; > 100 µM in [9]; 22.3 µM in test [10]; 42.3 µM in test [11]; > 100 µM in [12]; 81.6 µM in test [13]. Also, the results for the TGI in test [14], in [15] and in test [16] were > 100 µM, > 100 µM and 45.1 µM, respectively.
